According to publication PMC3546862, “Assessing the utility of an anti-malarial pharmacokinetic-pharmacodynamic model for aiding drug clinical development” (Malaria Journal, 2012):
≈ marks a conversion by molar mass, not a printed value. Like-named read-outs stand apart in the source and are kept apart here. Marks after values point to notes of the source that are not given here.

Columns and labels:
[1] = cited from earlier work
[2] = test system: P. falciparum; set-up: method as in PMID 2648881; settings: assumed; cited from earlier work
[3] = test system: human plasma protein; assay: Human plasma protein binding by ultracentrifugation; assay type: in vitro ADME; settings: ultracentrifugation 4.2 hours at 37°C
Protocol: (§1) Estimates of drug binding to the in vitro testing media (i.e. 0.5% Albumax in RPMI) and human plasma were determined using ultracentrifugation. Briefly, blank Albumax media and plasma were each spiked with compound and divided into six aliquots; three aliquots were subjected to ultracentrifugation (Beckman Optima XL-100K Ultracentrifuge, Rotor type 42.2 Ti; 223,000 x g) for 4.2 hours at 37°C to pellet the proteins whereas the remaining three aliquots served as controls and were incubated at 37°C for the same time period but without centrifugation. Controls were also stored at −20°C to confirm sample stability over the centrifugation period. Aliquots of the supernatants from the ultracentrifuged samples were first diluted 1:1 in acetonitrile, assayed by LC-MS and the responses compared to a calibration curve prepared in 50% aqueous acetonitrile to determine the unbound (i.e. free) concentration. Control concentrations in each matrix were determined using LC-MS by first precipitating the proteins with acetonitrile (3:1 acetonitrile: matrix) and then comparing the responses to a calibration curve from a blank matrix prepared using the same protein precipitation procedure. The free fraction in each matrix was then determined from the ratio of the average unbound (e.g. free) concentration to the average total concentration in each matrix.

[4] = test system: P. falciparum strain NF54; assay: [3H]-hypoxanthine incorporation assay, asynchronous intraerythrocytic forms; assay type: cell-based; settings: for IC50: Plasmodium falciparum
Protocol: (§2) The fresh P. falciparum parasite isolates were obtained from blood samples of 487 patients attending outpatient clinics in Papua, Indonesia between 2004 and 2010 [26]. The in vitro drug susceptibility was determined using the World Health Organization guidelines for schizont maturation tests. The in vitro data for artemether were measured at the Swiss Tropical and Public Health Institute (Switzerland; Basel) against asynchronous intraerythrocytic forms of the P. falciparum strain NF54 (obtained from MR4) using the [3H]-hypoxanthine incorporation assay.

[5] = target: 0.5% Albumax in RPMI (Bos taurus, UniProt P02769); assay: Binding to in vitro testing media by ultracentrifugation; assay type: in vitro ADME; settings: ultracentrifugation 4.2 hours at 37°C
Sequence of 0.5% Albumax in RPMI (P02769 25-607): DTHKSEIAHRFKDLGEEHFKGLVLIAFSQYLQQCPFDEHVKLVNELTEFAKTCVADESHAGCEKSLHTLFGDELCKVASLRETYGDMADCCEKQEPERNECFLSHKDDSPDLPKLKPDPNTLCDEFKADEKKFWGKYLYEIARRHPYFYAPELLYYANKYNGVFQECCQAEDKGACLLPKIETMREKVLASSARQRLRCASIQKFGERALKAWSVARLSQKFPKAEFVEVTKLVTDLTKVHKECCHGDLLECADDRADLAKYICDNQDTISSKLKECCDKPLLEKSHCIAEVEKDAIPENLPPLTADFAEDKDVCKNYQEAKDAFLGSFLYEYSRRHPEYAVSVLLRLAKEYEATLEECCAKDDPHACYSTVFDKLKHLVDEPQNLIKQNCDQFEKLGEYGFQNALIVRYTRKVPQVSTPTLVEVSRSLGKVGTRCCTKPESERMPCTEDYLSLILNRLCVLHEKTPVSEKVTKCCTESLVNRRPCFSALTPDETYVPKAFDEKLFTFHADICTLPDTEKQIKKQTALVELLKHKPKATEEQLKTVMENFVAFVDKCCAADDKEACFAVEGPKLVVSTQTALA
Protocol: as §1

[6] = test system: P. falciparum; assay: Parasite reduction ratio from published clinical data and kmax calculated from it; assay type: in vivo; settings: kmax = 1/KZ x ln PRR + 1/48 x ln PMF, PMF = 10
Text: (§3) The maximal killing rate (kmax) of the drug was assumed to follow a triangular distribution. The middle values were taken from published clinical data. Piperaquine was the only drug with no clinical studies of it administered as a monotherapy and the mode was set to a value equal to that derived from in vitro experiments. The minimum and maximum values of the triangular distribution for each anti-malarial correspond to a 50-fold decrease and 50-fold increase in the number of parasites killed every 48 hours.

[7] = Whole blood to plasma partitioning ratio (B/P); assay type: in vitro ADME; settings: human, whole blood and plasma; 37°C, 2 min incubation
Protocol: The whole blood to plasma partitioning ratio (B/P) was determined by spiking aliquots of whole blood or plasma maintained at 37°C with compound, incubating for 2 min, and then centrifuging the whole blood sample to obtain the plasma fraction. Both the plasma fraction of whole blood and the plasma control were assayed for compound by LC-MS as described above. The blood to plasma ratio was calculated from the ratio of the concentration in the plasma control (used as a surrogate for the total whole blood concentration since whole blood assays were not available for each compound) to that in the plasma fraction of whole blood. The two-minute time point was used to avoid confounding issues due to potential blood instability; rapid equilibration between plasma and erythrocytes was assumed.

[8] = test system: fresh P. falciparum parasite isolates; assay: In vitro drug susceptibility, schizont maturation test (WHO guidelines) on fresh patient isolates; assay type: cell-based; settings: for IC50: Plasmodium falciparum; for γ, mean on loge scale of log-normal distribution lnN(μ ln, σ ln): first parameter of lnN; for γ (Slope of concentration-effect curve): in vitro
Protocol: as §2

[9] = test system: P. falciparum; settings: every 48 hours; published clinical data; cited from earlier work
[10] = test system: P. falciparum; assay: Parasite reduction ratio from in vitro killing rate experiments and kmax calculated from it; assay type: cell-based; settings: kmax = 1/KZ x ln PRR + 1/48 x ln PMF, PMF = 10; PRR from in vitro experiments
Text: as §3

[11] = test system: ring stage parasites; set-up: method as in PMID 21173254; settings: patients with delayed PCTs; cited from earlier work
[12] = geometric mean, adjusted to whole blood, lower limit a of EC50 distribution, read-out: IC50 (adjusted) concentration
[13] = geometric mean, not corrected for binding, isolates of 487 patients, Papua, Indonesia, read-out: IC50 measured concentration
[14] = not corrected for binding, from nM and molecular weight, read-out: IC50 concentration

SMILES	CL/F (clearance) [1] [L/h]	V/F (volume of distribution) [1]	ka (absorption rate constant) [1] [h⁻¹]	KZ (length of the killing zone) [2] [h]	Human plasma protein binding [3] [% bound]	Binding to media of in vitro experiment (0.5% Albumax) [5] [% bound]	kmax, mode c of triangular distribution TRI(a, b, c) [6]	blood plasma ratio at 2 min [7]	IC50 [8, 12] [ng/mL]	IC50 [8, 13] [nM]	IC50 [8, 14] [ng/mL]	γ, mean on loge scale of log-normal distribution lnN(μ ln, σ ln) [8]	γ (Slope of concentration-effect curve) [8]	also measured
CO[C@H]1O[C@@H]2O[C@@]3(C)CC[C@H]4[C@H](C)CC[C@@H]([C@H]1C)[C@@]24OO3 [ART, artemether]	180	217 L	0.37	38	91.7	82.8	TRI(0.12, 0.33, 0.22)^c /h	0.8						IC50 ([4]; adjusted to whole blood, lower limit a of EC50 distribution, read-out: IC50 (adjusted) concentration): 4.38 ng/mL (≈ 0.0147 µM); IC50 ([4]; not corrected for binding, read-out: IC50 concentration): 2.64 ng/mL (≈ 0.00885 µM); γ, mean on loge scale of log-normal distribution lnN(μ ln, σ ln) ([4]; first parameter of lnN): lnN(1.53, 0.31); γ (Slope of concentration-effect curve) ([4]; in vitro): 4.61
CCCCN(CCCC)CC(O)c1cc(Cl)cc2c1-c1ccc(Cl)cc1/C2=C/c1ccc(Cl)cc1 (stereo not drawn) [LF, lumefantrine]	7.04		0.17	22	98.7	99.6	TRI(0.18, 0.54, 0.36)^c /h	0.8	1.75	13.4	7.1	lnN (0.81, 0.58)	2.24	Q/F (inter-compartmental clearance) [1]: 4.08 L/h; Vc/F (volume of central compartment) [1]: 103 L; Vp/F (volume of peripheral compartment) [1]: 272 L; PRR (parasite reduction ratio) [9]: 10^3
OC(c1cc(C(F)(F)F)nc2c(C(F)(F)F)cccc12)C1CCCCN1 (stereo not drawn) [MQ, mefloquine]		10.2^f L/kg		22	95.6	85	TRI(0.11, 0.46, 0.28)^c /h		21	9.34	3.53	lnN (0.97, 0.54)	2.63	IC50 (adjusted) concentration ([8]; geometric mean, adjusted to whole blood, lower limit a of EC50 distribution): 20.48 ng/mL (≈ 0.0541 µM)
Clc1ccc2c(N3CCN(CCCN4CCN(c5ccnc6cc(Cl)ccc56)CC4)CC3)ccnc2c1 [PQ, piperaquine]				24	98.6	98.1		0.9	11.6	17.7	9.46		3.48	kmax, mode c of triangular distribution TRI(a, b, c) [10]: TRI(0.33, 0.65, 0.49)^c /h; CL/F (clearance) ([1]; 48kg individual): 66 L/h; Q/F (inter-compartmental clearance) ([1]; 48kg individual): 131 L/h; Vc/F (volume of central compartment) ([1]; 48kg individual): 8660 L; Vp/F (volume of peripheral compartment) ([1]; 48kg individual): 24000 L; ka (absorption rate constant) ([1]; 48kg individual): 0.717 h⁻¹
C[C@H]1[C@H](OC(=O)CCC(=O)O)O[C@@H]2O[C@@]3(C)CC[C@H]4[C@H](C)CC[C@@H]1[C@@]24OO3 [artesunate]														Maximal killing rate for the ring stages, mean [11]: 62 % /cycle
